In brackets after ≈: the same amount, converted by molar mass.
Tests used:
Format in all cases: functional
[1] = system: Mycobacterium tuberculosis; experiment: Antitubercular activity against rifampin, isoniazid and streptomycin-resistant Mycobacterium tuberculosis assessed as inhibition of bacterial growth after 4 weeks by two-fold dilution technique; details: 672 h
[2] = system: Mycobacterium tuberculosis; experiment: Antitubercular activity against rifampin, isoniazid, amikacin and ofloxacin-resistant Mycobacterium tuberculosis assessed as inhibition of bacterial growth after 4 weeks by two-fold dilution technique; details: 672 h
[3] = system: Mycobacterium tuberculosis; experiment: Antitubercular activity against rifampin, isoniazid and streptomycin-resistant Mycobacterium tuberculosis infected in human THP-1 cells assessed as inhibition of intracellular activity at 20 mg/L after 4 days; details: THP-1, 96 h
[4] = system: Mycobacterium tuberculosis; experiment: Antitubercular activity against rifampin, isoniazid and ethambutol-resistant Mycobacterium tuberculosis infected in human THP-1 cells assessed as inhibition of intracellular activity at 20 mg/L after 4 days; details: THP-1, 96 h
[5] = system: Mycobacterium tuberculosis; experiment: Antitubercular activity against isoniazid-resistant Mycobacterium tuberculosis infected in human THP-1 cells assessed as inhibition of intracellular activity at 10 mg/L after 4 days; details: THP-1, 96 h
[6] = system: Mycobacterium tuberculosis; experiment: Antitubercular activity against rifampin and isoniazid-resistant Mycobacterium tuberculosis infected in human THP-1 cells assessed as inhibition of intracellular activity at 20 mg/L after 4 days; details: THP-1, 96 h
[7] = system: Mycobacterium tuberculosis; experiment: Antitubercular activity against rifampin, isoniazid, amikacin and ofloxacin-resistant Mycobacterium tuberculosis infected in human THP-1 cells assessed as inhibition of intracellular activity at 10 mg/L after 4 days; details: THP-1, 96 h
[8] = system: Mycobacterium tuberculosis; experiment: Antitubercular activity against rifampin, isoniazid, kanamycin and ofloxacin-resistant Mycobacterium tuberculosis infected in human THP-1 cells assessed as inhibition of intracellular activity at 10 mg/L after 4 days; details: THP-1, 96 h
[9] = system: Mycobacterium tuberculosis; experiment: Antitubercular activity against rifampin and isoniazid-resistant Mycobacterium tuberculosis infected in human THP-1 cells assessed as inhibition of intracellular activity at 10 mg/L after 4 days; details: THP-1, 96 h
[10] = system: Mycobacterium tuberculosis; experiment: Antitubercular activity against rifampin, isoniazid and ethambutol-resistant Mycobacterium tuberculosis infected in human THP-1 cells assessed as inhibition of intracellular activity at 10 mg/L after 4 days; details: THP-1, 96 h
[11] = system: Mycobacterium tuberculosis; experiment: Antitubercular activity against rifampin, isoniazid, kanamycin and ofloxacin-resistant Mycobacterium tuberculosis infected in human THP-1 cells assessed as inhibition of intracellular activity at 20 mg/L after 4 days; details: THP-1, 96 h
[12] = system: Mycobacterium tuberculosis; experiment: Antitubercular activity against rifampin, isoniazid and ethambutol-resistant Mycobacterium tuberculosis assessed as inhibition of bacterial growth after 4 weeks by two-fold dilution technique; details: 672 h
[13] = system: Mycobacterium tuberculosis; experiment: Antitubercular activity against rifampin, isoniazid, kanamycin and ofloxacin-resistant Mycobacterium tuberculosis assessed as inhibition of bacterial growth after 4 weeks by two-fold dilution technique; details: 672 h
[14] = system: Mycobacterium tuberculosis; experiment: Antitubercular activity against rifampin, isoniazid, amikacin and ofloxacin-resistant Mycobacterium tuberculosis infected in human THP-1 cells assessed as inhibition of intracellular activity at 20 mg/L after 4 days; details: THP-1, 96 h
[15] = system: Mycobacterium tuberculosis; experiment: Antitubercular activity against rifampin, isoniazid and streptomycin-resistant Mycobacterium tuberculosis infected in human THP-1 cells assessed as inhibition of intracellular activity at 10 mg/L after 4 days; details: THP-1, 96 h
[16] = system: Mycobacterium tuberculosis; experiment: Antitubercular activity against rifampin and isoniazid-resistant Mycobacterium tuberculosis assessed as inhibition of bacterial growth after 4 weeks by two-fold dilution technique; details: 672 h
[17] = system: Mycobacterium tuberculosis; experiment: Antitubercular activity against isoniazid-resistant Mycobacterium tuberculosis infected in human THP-1 cells assessed as inhibition of intracellular activity at 20 mg/L after 4 days; details: THP-1, 96 h
[18] = system: Mycobacterium tuberculosis; experiment: Antitubercular activity against isoniazid-resistant Mycobacterium tuberculosis assessed as inhibition of bacterial growth after 4 weeks by two-fold dilution technique; details: 672 h

Structure (SMILES) | MIC [1] | MIC [2] | inhibition at 20 µg/mL [3] | inhibition at 20 µg/mL [4] | inhibition at 10 µg/mL [5] | inhibition at 20 µg/mL [6] | inhibition at 10 µg/mL [7] | inhibition at 10 µg/mL [8] | inhibition at 10 µg/mL [9] | inhibition at 10 µg/mL [10] | inhibition at 20 µg/mL [11] | MIC [12] | MIC [13] | inhibition at 20 µg/mL [14] | inhibition at 10 µg/mL [15] | MIC [16] | inhibition at 20 µg/mL [17] | MIC [18]
O=C(On1c(-c2cccc(F)c2)nc2ccccc2c1=O)c1cccc(F)c1 | 2.5 µg/mL (≈ 6.61 µM) | 2.5 µg/mL (≈ 6.61 µM) | 53.4% | 50.4% | 25.5% | 47.5% | 22.8% | 26% | 22.6% | 24.2% | 52.2% | 2.5 µg/mL (≈ 6.61 µM) | 2.5 µg/mL (≈ 6.61 µM) | 46.2% | 26.2% | 2.5 µg/mL (≈ 6.61 µM) | 51.3% | 2.5 µg/mL (≈ 6.61 µM)
O=C(On1c(-c2ccccc2)nc2ccccc2c1=O)c1cccc([N+](=O)[O-])c1 | 5 µg/mL (≈ 12.9 µM) | 5 µg/mL (≈ 12.9 µM) |  |  |  |  |  |  |  |  |  | 5 µg/mL (≈ 12.9 µM) | 5 µg/mL (≈ 12.9 µM) |  |  | 5 µg/mL (≈ 12.9 µM) |  | 5 µg/mL (≈ 12.9 µM)
O=C(On1c(-c2ccccc2)nc2ccccc2c1=O)c1cccc(Cl)c1 | 5 µg/mL (≈ 13.3 µM) | 5 µg/mL (≈ 13.3 µM) |  |  |  |  |  |  |  |  |  | 5 µg/mL (≈ 13.3 µM) | 5 µg/mL (≈ 13.3 µM) |  |  | 5 µg/mL (≈ 13.3 µM) |  | 5 µg/mL (≈ 13.3 µM)
COc1cccc(-c2nc3ccccc3c(=O)n2OC(=O)c2cccc([N+](=O)[O-])c2)c1 | 5 µg/mL (≈ 12 µM) | 5 µg/mL (≈ 12 µM) |  |  |  |  |  |  |  |  |  | 5 µg/mL (≈ 12 µM) | 5 µg/mL (≈ 12 µM) |  |  | 5 µg/mL (≈ 12 µM) |  | 5 µg/mL (≈ 12 µM)
COc1cccc(-c2nc3ccccc3c(=O)n2OC(=O)c2cccc(C(F)(F)F)c2)c1 | 10 µg/mL (≈ 22.7 µM) | 10 µg/mL (≈ 22.7 µM) |  |  |  |  |  |  |  |  |  | 10 µg/mL (≈ 22.7 µM) | 10 µg/mL (≈ 22.7 µM) |  |  | 10 µg/mL (≈ 22.7 µM) |  | 10 µg/mL (≈ 22.7 µM)
NNC(=O)c1ccncc1 [ISONIAZID] | > 8 µg/mL | > 8 µg/mL |  |  |  |  |  |  |  |  |  | > 8 µg/mL | > 8 µg/mL |  |  | > 8 µg/mL |  | > 8 µg/mL
CO[C@H]1/C=C/O[C@@]2(C)Oc3c(C)c(O)c4c(O)c(c(/C=N/N5CCN(C)CC5)c(O)c4c3C2=O)NC(=O)/C(C)=C\C=C\[C@H](C)[C@H](O)[C@@H](C)[C@@H](O)[C@@H](C)[C@H](OC(C)=O)[C@@H]1C [RIFAMPIN] | > 8 µg/mL | > 8 µg/mL |  |  |  |  |  |  |  |  |  | > 8 µg/mL | > 8 µg/mL |  |  | > 8 µg/mL |  | 0.4 µg/mL (≈ 0.486 µM)
COC(=O)c1ccccc1S(=O)(=O)NC(=O)Nc1nc(C)cc(C)n1 [SULFOMETURON METHYL] | 10 µg/mL (≈ 27.4 µM) | 10 µg/mL (≈ 27.4 µM) | 36.2% | 35% | 17.8% | 34.4% | 15% | 18.8% | 16.2% | 17% | 36% | 10 µg/mL (≈ 27.4 µM) | 10 µg/mL (≈ 27.4 µM) | 31.8% | 18.5% | 10 µg/mL (≈ 27.4 µM) | 35.6% | 10 µg/mL (≈ 27.4 µM)

— ChEMBL document CHEMBL3425445, “Synthesis, crystal structure and biological evaluation of substituted quinazolinone benzoates as novel antituberculosis agents targeting acetohydroxyacid synthase” (Eur J Med Chem, 2015)
